pIC50: −log10 of the molar value. “And” between values parts separate entries of the source, which are not always exact repeats. Identical values can stand only once.
Test system: NCI-H23 complex spheroids with HUVEC/MSC, viability
Assay: Anticancer human tumor NCI-H23 cell line growth inhibition [RAS];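 also: spheroids exposed to compound for 7 days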;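 as to viability, T/C: 100% = DMSO vehicle control viability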
Conditions: for viability, T/C: stronger effect = lower value
Summary of the method: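 Agents were tested in combination matrices in half-log decrements from a top concentration at or near clinical Cmax (10 microM if undetermined). Targets were multi-cell spheroids of tumour lines plus HUVEC and MSC stromal cells.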

[1] = curve of first compound, second compound 0.000949 µM
[2] = curve of first compound, second compound 0.003 µM
[3] = curve of first compound, second compound 0.00949 µM
[4] = curve of first compound, second compound 0.03 µM
[5] = curve of first compound, second compound 0.0949 µM
[6] = curve of first compound, second compound 0.3 µM
[7] = second compound 0.000949 µM, first compound 0.0316 µM
[8] = second compound 0.000949 µM, first compound 0.1 µM
[9] = second compound 0.000949 µM, first compound 0.316 µM
[10] = second compound 0.000949 µM, first compound 1 µM
[11] = second compound 0.000949 µM, first compound 3.16 µM
[12] = second compound 0.000949 µM, first compound 10 µM
[13] = second compound 0.003 µM, first compound 0.0316 µM
[14] = second compound 0.003 µM, first compound 0.1 µM
[15] = second compound 0.003 µM, first compound 0.316 µM
[16] = second compound 0.003 µM, first compound 1 µM
[17] = second compound 0.003 µM, first compound 3.16 µM
[18] = second compound 0.003 µM, first compound 10 µM
[19] = second compound 0.00949 µM, first compound 0.0316 µM
[20] = second compound 0.00949 µM, first compound 0.1 µM
[21] = second compound 0.00949 µM, first compound 0.316 µM
[22] = second compound 0.00949 µM, first compound 1 µM
[23] = second compound 0.00949 µM, first compound 3.16 µM
[24] = second compound 0.00949 µM, first compound 10 µM
[25] = second compound 0.03 µM, first compound 0.0316 µM
[26] = second compound 0.03 µM, first compound 0.1 µM
[27] = second compound 0.03 µM, first compound 0.316 µM
[28] = second compound 0.03 µM, first compound 1 µM
[29] = second compound 0.03 µM, first compound 3.16 µM
[30] = second compound 0.03 µM, first compound 10 µM
[31] = second compound 0.0949 µM, first compound 0.0316 µM
[32] = second compound 0.0949 µM, first compound 0.1 µM
[33] = second compound 0.0949 µM, first compound 0.316 µM
[34] = second compound 0.0949 µM, first compound 1 µM
[35] = second compound 0.0949 µM, first compound 3.16 µM
[36] = second compound 0.0949 µM, first compound 10 µM
[37] = second compound 0.3 µM, first compound 0.0316 µM
[38] = second compound 0.3 µM, first compound 0.1 µM
[39] = second compound 0.3 µM, first compound 0.316 µM
[40] = second compound 0.3 µM, first compound 1 µM
[41] = second compound 0.3 µM, first compound 3.16 µM
[42] = second compound 0.3 µM, first compound 10 µM

Compound: CCN1CCN(Cc2ccc(Nc3ncc(F)c(-c4cc(F)c5nc(C)n(C(C)C)c5c4)n3)nc2)CC1 + C#Cc1c(F)ccc2cc(O)cc(-c3ncc4c(N5CC6CCC(C5)N6)nc(OCC56CCCN5CC(F)C6)nc4c3F)c12
- pIC50 (curve of first compound, second compound 0.0316 µM): < 6.00
- pIC50 (curve of first compound, second compound 0.1 µM): < 6.00
- pIC50 (curve of first compound, second compound 0.316 µM): 7.05
- pIC50 (curve of first compound, second compound 1 µM): 7.25
- pIC50 (curve of first compound, second compound 3.16 µM): 7.91
- pIC50 (curve of first compound, second compound 10 µM): > 8.50
- viability, T/C (second compound 0.0316 µM, first compound 0.00316 µM): 105%
- viability, T/C (second compound 0.0316 µM, first compound 0.01 µM): 102%
- viability, T/C (second compound 0.0316 µM, first compound 0.0316 µM): 79%
- viability, T/C (second compound 0.0316 µM, first compound 0.1 µM): 61.8%
- viability, T/C (second compound 0.0316 µM, first compound 0.316 µM): 61.2%
- viability, T/C (second compound 0.0316 µM, first compound 1 µM): 60.9%
- viability, T/C (second compound 0.1 µM, first compound 0.00316 µM): 104%
- viability, T/C (second compound 0.1 µM, first compound 0.01 µM): 108%
- viability, T/C (second compound 0.1 µM, first compound 0.0316 µM): 70%
- viability, T/C (second compound 0.1 µM, first compound 0.1 µM): 56.8%
- viability, T/C (second compound 0.1 µM, first compound 0.316 µM): 50.9%
- viability, T/C (second compound 0.1 µM, first compound 1 µM): 52.2%
- viability, T/C (second compound 0.316 µM, first compound 0.00316 µM): 94.2%
- viability, T/C (second compound 0.316 µM, first compound 0.01 µM): 109%
- viability, T/C (second compound 0.316 µM, first compound 0.0316 µM): 71.8%
- viability, T/C (second compound 0.316 µM, first compound 0.1 µM): 51.4%
- viability, T/C (second compound 0.316 µM, first compound 0.316 µM): 48.4%
- viability, T/C (second compound 0.316 µM, first compound 1 µM): 43.3%
- viability, T/C (second compound 1 µM, first compound 0.00316 µM): 81.2%
- viability, T/C (second compound 1 µM, first compound 0.01 µM): 75%
- viability, T/C (second compound 1 µM, first compound 0.0316 µM): 56.6%
- viability, T/C (second compound 1 µM, first compound 0.1 µM): 42.6%
- viability, T/C (second compound 1 µM, first compound 0.316 µM): 40.4%
- viability, T/C (second compound 1 µM, first compound 1 µM): 34.7%
- viability, T/C (second compound 3.16 µM, first compound 0.00316 µM): 54.5%
- viability, T/C (second compound 3.16 µM, first compound 0.01 µM): 53.3%
- viability, T/C (second compound 3.16 µM, first compound 0.0316 µM): 37.9%
- viability, T/C (second compound 3.16 µM, first compound 0.1 µM): 29%
- viability, T/C (second compound 3.16 µM, first compound 0.316 µM): 30%
- viability, T/C (second compound 3.16 µM, first compound 1 µM): 22.8%
- viability, T/C (second compound 10 µM, first compound 0.00316 µM): 30.3%
- viability, T/C (second compound 10 µM, first compound 0.01 µM): 39.5%
- viability, T/C (second compound 10 µM, first compound 0.0316 µM): 26.5%
- viability, T/C (second compound 10 µM, first compound 0.1 µM): 21.1%
- viability, T/C (second compound 10 µM, first compound 0.316 µM): 22.2%
- viability, T/C (second compound 10 µM, first compound 1 µM): 21%

Compound: CC(Nc1ccc2c(c1)OCCn1cc(N3C(=O)OCC3C(F)F)nc1-2)C(N)=O (centres undefined) + CCn1c(-c2cccnc2C(C)OC)c2c3cc(ccc31)N1CCOC(CC(NC(=O)C(C(C)C)N(C)C(=O)C3(F)CCN(C(=O)C#CC(C)(C)N(C)C)CC3)C(=O)N3CCCC(N3)C(=O)OCC(C)(C)C2)C1
- pIC50 [1]: > 7.50
- pIC50 [2]: > 7.50
- pIC50 [3]: > 7.50
- pIC50 [4]: > 7.50
- pIC50 [5]: > 7.50
- pIC50 [6]: > 7.50
- viability, T/C [7]: 29.1%
- viability, T/C [8]: 22.3%
- viability, T/C [9]: 21%
- viability, T/C [10]: 23.1%
- viability, T/C [11]: 21.2%
- viability, T/C [12]: 14%
- viability, T/C [13]: 28.8%
- viability, T/C [14]: 23.6%
- viability, T/C [15]: 19.2%
- viability, T/C [16]: 21%
- viability, T/C [17]: 21.1%
- viability, T/C [18]: 13.9%
- viability, T/C [19]: 28.1%
- viability, T/C [20]: 21.2%
- viability, T/C [21]: 20.8%
- viability, T/C [22]: 19.1%
- viability, T/C [23]: 18.2%
- viability, T/C [24]: 14.7%
- viability, T/C [25]: 23.1%
- viability, T/C [26]: 24.4%
- viability, T/C [27]: 20.3%
- viability, T/C [28]: 18.3%
- viability, T/C [29]: 17%
- viability, T/C [30]: 16%
- viability, T/C [31]: 24.7%
- viability, T/C [32]: 21.1%
- viability, T/C [33]: 22.5%
- viability, T/C [34]: 20.7%
- viability, T/C [35]: 13.8%
- viability, T/C [36]: 16.6%
- viability, T/C [37]: 22.4%
- viability, T/C [38]: 21.3%
- viability, T/C [39]: 20.1%
- viability, T/C [40]: 15%
- viability, T/C [41]: 16.7%
- viability, T/C [42]: 14.9%

Compound: CC(C)NCC(C(=O)N1CCN(c2ncnc3c2C(C)CC3O)CC1)c1ccc(Cl)cc1 (centres undefined) + CCn1c(-c2cc(N3CCN(C)CC3)cnc2C(C)OC)c2c3cc(ccc31)-c1csc(n1)CC(NC(=O)C1CC1C)C(=O)N1CCCC(N1)C(=O)OCC(C)(C)C2
- pIC50 [1]: > 7.50
- pIC50 [2]: > 7.50
- pIC50 [3]: > 7.50
- pIC50 [4]: > 7.50
- pIC50 [5]: > 7.50
- pIC50 [6]: > 7.50
- viability, T/C [7]: 44%
- viability, T/C [8]: 47.4%
- viability, T/C [9]: 32.9%
- viability, T/C [10]: 34.7%
- viability, T/C [11]: 26.2%
- viability, T/C [12]: 15.2%
- viability, T/C [13]: 37.9%
- viability, T/C [14]: 27.3%
- viability, T/C [15]: 24.2%
- viability, T/C [16]: 22.6%
- viability, T/C [17]: 22%
- viability, T/C [18]: 13.8%
- viability, T/C [19]: 30.8%
- viability, T/C [20]: 31.7%
- viability, T/C [21]: 30.4%
- viability, T/C [22]: 22.2%
- viability, T/C [23]: 17.1%
- viability, T/C [24]: 10.4%
- viability, T/C [25]: 29.5%
- viability, T/C [26]: 23.8%
- viability, T/C [27]: 21.5%
- viability, T/C [28]: 19.6%
- viability, T/C [29]: 12.1%
- viability, T/C [30]: 12.1%
- viability, T/C [31]: 18.6%
- viability, T/C [32]: 18.6%
- viability, T/C [33]: 17.8%
- viability, T/C [34]: 17.4%
- viability, T/C [35]: 10.3%
- viability, T/C [36]: 9.96%
- viability, T/C [37]: 18.1%
- viability, T/C [38]: 15.7%
- viability, T/C [39]: 14.9%
- viability, T/C [40]: 10.6%
- viability, T/C [41]: 9.62%
- viability, T/C [42]: 9.02%

Compound: CCC(CC)c1cc(NC2CCC(N)C2)n2nccc2n1 (centres undefined) + CCn1c(-c2cc(N3CCN(C)CC3)cnc2C(C)OC)c2c3cc(ccc31)-c1csc(n1)CC(NC(=O)C1CC1C)C(=O)N1CCCC(N1)C(=O)OCC(C)(C)C2
- pIC50 [1]: > 7.50
- pIC50 [2]: > 7.50
- pIC50 [3]: > 7.50
- pIC50 [4]: > 7.50
- pIC50 [5]: > 7.50
- pIC50 [6]: > 7.50
- viability, T/C [7]: 46.5%
- viability, T/C [8]: 50.7%
- viability, T/C [9]: 40.9%
- viability, T/C [10]: 41.2%
- viability, T/C [11]: 2.33%
- viability, T/C [12]: 0.49%
- viability, T/C [13]: 37.7%
- viability, T/C [14]: 33.8%
- viability, T/C [15]: 34%
- viability, T/C [16]: 36.4%
- viability, T/C [17]: 2.67%
- viability, T/C [18]: 0.37%
- viability, T/C [19]: 36.3%
- viability, T/C [20]: 33.7%
- viability, T/C [21]: 34.2%
- viability, T/C [22]: 35.7%
- viability, T/C [23]: 1.63%
- viability, T/C [24]: 0.42%
- viability, T/C [25]: 30.1%
- viability, T/C [26]: 24.9%
- viability, T/C [27]: 31.1%
- viability, T/C [28]: 28.3%
- viability, T/C [29]: 0.59%
- viability, T/C [30]: 0.54%
- viability, T/C [31]: 22.9%
- viability, T/C [32]: 23.2%
- viability, T/C [33]: 24.7%
- viability, T/C [34]: 25.4%
- viability, T/C [35]: 0.87%
- viability, T/C [36]: 0.64%
- viability, T/C [37]: 19%
- viability, T/C [38]: 20.5%
- viability, T/C [39]: 22.4%
- viability, T/C [40]: 19%
- viability, T/C [41]: 1.45%
- viability, T/C [42]: 0.47%

Compound: CC(C)NCC(C(=O)N1CCN(c2ncnc3c2C(C)CC3O)CC1)c1ccc(Cl)cc1 (centres undefined)
- viability, T/C (compound 0.0316 µM): 103% [middle of 4 runs]
- viability, T/C (compound 0.1 µM): 97.1% [middle of 4 runs]
- viability, T/C (compound 0.316 µM): 102% [middle of 4 runs]
- viability, T/C (compound 1 µM): 93.3% [middle of 4 runs]
- viability, T/C (compound 3.16 µM): 73.3% [middle of 4 runs]
- pIC50 (curve of compound): < 5.00 and 5.04 and 5.01

Source: PubChem BioAssay AID2060885 (Molecular Pharmacology Branch, DTP, NCI, 2025)
